Reference: US7060683B2, “Hydroxamate-containing cysteine and serine protease inhibitors” (Cephalon, Inc., priority 1998, dated 2006)

Each compound was assayed against T1, Recombinant human calpain I (Homo sapiens, UniProt P07384) (assay: Inhibition of Calpain (Succ-Leu-Tyr-MNA substrate hydrolysis)). Conditions: 0.2 mM Succ-Leu-Tyr-MNA, pH 7.5, five to seven concentrations.
T1 construct: made in house
T1 sequence (P07384 1-714): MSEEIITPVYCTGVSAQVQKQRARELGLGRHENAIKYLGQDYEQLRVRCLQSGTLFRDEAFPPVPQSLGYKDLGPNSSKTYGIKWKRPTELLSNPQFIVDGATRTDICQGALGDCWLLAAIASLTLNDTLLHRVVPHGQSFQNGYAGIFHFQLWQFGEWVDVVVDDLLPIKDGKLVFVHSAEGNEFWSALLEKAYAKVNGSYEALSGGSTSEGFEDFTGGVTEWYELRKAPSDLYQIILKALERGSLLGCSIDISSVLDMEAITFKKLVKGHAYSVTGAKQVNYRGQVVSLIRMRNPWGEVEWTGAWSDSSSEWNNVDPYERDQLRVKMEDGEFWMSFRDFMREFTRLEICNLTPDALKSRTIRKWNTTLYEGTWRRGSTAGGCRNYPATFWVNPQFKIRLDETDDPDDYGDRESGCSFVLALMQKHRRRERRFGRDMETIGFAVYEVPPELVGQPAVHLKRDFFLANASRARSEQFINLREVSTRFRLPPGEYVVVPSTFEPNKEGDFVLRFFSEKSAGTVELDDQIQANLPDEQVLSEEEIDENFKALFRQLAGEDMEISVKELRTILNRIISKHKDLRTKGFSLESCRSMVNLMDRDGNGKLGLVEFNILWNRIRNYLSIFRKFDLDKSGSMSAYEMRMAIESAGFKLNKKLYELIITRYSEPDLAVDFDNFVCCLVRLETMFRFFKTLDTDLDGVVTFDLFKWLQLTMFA
T1 sequence (P04632 1-268 partner): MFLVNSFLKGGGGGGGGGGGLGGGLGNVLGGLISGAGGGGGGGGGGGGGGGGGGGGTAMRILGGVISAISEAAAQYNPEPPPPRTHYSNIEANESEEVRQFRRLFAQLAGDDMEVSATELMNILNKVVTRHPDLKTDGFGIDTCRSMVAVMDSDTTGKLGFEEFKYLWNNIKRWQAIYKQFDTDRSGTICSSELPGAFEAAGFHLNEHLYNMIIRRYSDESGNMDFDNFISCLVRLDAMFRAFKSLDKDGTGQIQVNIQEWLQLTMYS
Type: biochemical
Experimental: To evaluate inhibitory activity, stock solutions (40 times concentrated) of each compound to be tested were prepared in 100% anhydrous DMSO and 5 μL of each inhibitor preparation were aliquoted into each of three wells of a 96-well plate. Recombinant human calpain I, prepared by the method of Meyer et al. (Biochem., J. 1996, 314: 511–519), was diluted into assay buffer (i.e., 50 mM Tris, 50 mM NaCl, 1 mM EDTA, 1 mM EGTA, and 5 mM β-mercaptoethanol, pH 7.5, including 0.2 mM Succ-Leu-Tyr-MNA), and 175 μl was aliquoted into the same wells containing the independent inhibitor stocks as well as to positive control wells containing 5 μl DMSO, but no compound. To start the reaction, 20 μl of 50 mM CaCl2 in assay buffer was added to all wells of the plate, excepting three, which were used as background signal baseline controls. Substrate hydrolysis was monitored every 5 minutes for a total of 30 minutes.
Inhibition of calpain I activity was calculated as the percent decrease in the rate of substrate hydrolysis in the presence of inhibitor relative to the rate in its absence. Comparison between the inhibited and control rates was made within the linear range for substrate hydrolysis. The IC50s of inhibitors (concentration yielding 50% inhibition) were determined from the percent decrease in rates of substrate hydrolysis in the presence of five to seven different concentrations of the test compound. The results were plotted as percent inhibition versus log inhibitor concentration, and the IC50 was calculated by fitting the data to the four-parameter logistic equation shown below using the program GraphPad Prism (GraphPad Software, Inc., San Diego, Calif.). y=d+[(a−d)/(1+(x/c)^b)]
The parameters a, b, c, and d are defined as follows: a is % inhibition in the absence of inbibitor, b is the slope, c is the IC50, and d is the % innibition at an infinite concentration of inhibitor.

IC50 | SMILES
19 nM | CCONC(=O)C(=O)[C@H](Cc1ccccc1)NC(=O)[C@H](CC(C)C)NC(=O)OCc1ccccc1 [Example 2, Cbz-Leu-Phe-CONHOEt]
6 nM | CC(C)C[C@H](NC(=O)OCc1ccccc1)C(=O)N[C@@H](Cc1ccccc1)C(=O)C(=O)NOCc1ccccc1 [Example 3, Cbz-Leu-Phe-CONHOBn]
17 nM | CC(C)C[C@H](NC(=O)OCc1ccccc1)C(=O)N[C@@H](CC(C)C)C(=O)N[C@@H](Cc1ccccc1)C(=O)C(=O)NOCc1ccccc1 [Example 13, Cbz-Leu-Leu-Phe-CONHOBn]
10 nM | CONC(=O)C(=O)[C@H](Cc1ccccc1)NC(=O)[C@H](CC(C)C)NC(=O)OCc1ccccc1 [Example 1, Cbz-Leu-Phe-CONHOCH3]
17 nM | CC(C)C[C@H](NC(=O)OCc1ccccc1)C(=O)N[C@@H](Cc1ccccc1)C(=O)C(=O)NOCc1c(F)c(F)c(F)c(F)c1F [Example 4, Cbz-Leu-Phe-CONHOCH2C6F5]
26 nM | CC(C)C[C@H](NC(=O)OCc1ccccc1)C(=O)N[C@@H](Cc1ccccc1)C(=O)C(=O)NOC(C)(C)C [Example 5, Cbz-Leu-Phe-CONHOtBu]
21 nM | CCCC[C@H](NC(=O)[C@@H](NC(=O)OCc1ccccc1)C(C)C)C(=O)C(=O)NOCc1ccccc1 [Example 11, Cbz-Val-Nle-CONHOBn]
56 nM | CCONC(=O)C(=O)[C@H](Cc1ccccc1)NC(=O)[C@@H](COCc1ccccc1)NS(C)(=O)=O [Example 9]
28 nM | CS(=O)(=O)N[C@H](COCc1ccccc1)C(=O)N[C@@H](Cc1ccccc1)C(=O)C(=O)NOCc1ccccc1 [Example 8, CH3SO2-D-Ser(Bn)-Phe-CONHOBn]
21 nM | CC(C)C[C@H](NC(=O)OCc1ccccc1)C(=O)N[C@@H](Cc1ccccc1)C(=O)C(=O)NOC1CCC(C)CC1 (stereo partly drawn) [Example 6, Cbz-Leu-Phe-CONHO(4-methylcyclohexane)]
20 nM | CONC(=O)C(=O)[C@H](Cc1ccccc1)NC(=O)[C@H](CC(C)C)NC(=O)[C@H](CC(C)C)NC(=O)OCc1ccccc1 [Example 12, Cbz-Leu-Leu-Phe-CONHOCH3]
152 nM | COC[C@H](NC(=O)[C@@H](COCc1ccccc1)NS(C)(=O)=O)C(=O)C(=O)NOCc1ccccc1 [Example 7, CH3SO2-D-Ser(Bn)-Ser(Me)-CONHOBn]

SMILES | IC50
CCCC[C@H](NC(=O)[C@H](Cc1ccccc1)NC(=O)c1ccccc1)C(=O)C(=O)NOCC [Example 15, PhCO-Phe-Nle-CONHOEt] | 193 nM
CCCCONC(=O)C(=O)[C@H](Cc1ccccc1)NC(=O)[C@H](CC(C)C)NC(=O)OCc1ccccc1 [Example 14, Cbz-Leu-Phe-CONHOBu] | 183 nM
